# Experimental data published in US20210283107A1, “Methods to Expand the Spectrum of Gram-Positive Antibiotics” (NORTH CAROLINA STATE UNIVERSITY, priority 2016, published 2021).
# Where two headings read alike, the source gives them in different places.
# Columns and labels:
# [1] = system: A. baumannii strain 5075 (AB5075); test: Macrolide sensitization / antibiotic resensitization: antibiotic MIC in presence of compound (broth microdilution); assay type: cell-based, Acinetobacter baumannii; conditions: for MIC: Acinetobacter baumannii; for potentiation of vancomycin: compound at 10 μM; for reduction in vancomycin MIC (fold): compound at 20 μM; for Josamycin MIC / Oleandomycin MIC / Spiramycin MIC / Troleandomycin MIC: in presence of compound (concentration not given in Table 7); for Amikacin MIC / Gentamicin MIC / Kanamycin MIC / Neomycin MIC / Streptomycin MIC / Tobramycin MIC: in presence of compound (concentration not given in Table 12); for Fold reduction of josamycin MIC: in the presence of compound (concentration not given)
# Outline: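 A. baumannii AB5075 at 5×10^5 CFU/mL in CAMHB held a fixed compound level while antibiotic was serially diluted. After 16-18 h static at 37° C, MIC was the lowest antibiotic concentration without visible growth. Fold-reduction is relative to antibiotic alone, from duplicates repeated at least twice.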
# [2] = system: A. baumannii mutant AB1310; test: MIC against Tn-seq transposon mutant AB1310; assay type: cell-based; conditions: Acinetobacter baumannii
# Method: (§1) During individual MIC screening, two mutants, AB522 and AB1310, were identified due to their increased sensitivity to the three macrolide antibiotics and vancomycin when compared to AB 5075 (Table 17).
# (§2) Day Cultures (6 h) were subcultured to 5×10^5 CFU/mL in cation adjusted Mueller-Hinton broth (CAMHB). Aliquots (1 mL) were placed in culture tubes, and compound was added from 100 mM stock solutions, such that the compound concentration equaled the highest concentration tested (200 μM or 64 μg/mL). Samples were then aliquoted (200 μL) into the first row of wells of a 96-well plate, with all remaining wells being filled with 100 μL of initial bacterial subculture. The wells in row one were mixed five times before 100 μL was transferred to the following row (row two). Row two was then mixed five times, and 100 μL was transferred to row three. This processed was repeated until the final row had been mixed. This process provided a serial dilution of the compound. Plates were covered with Glad Press n'Seal and were incubated under stationary conditions at 37° C. for 16 hours. MIC values were recorded as the lowest concentration at which no bacterial growth was observed.
# [3] = system: A. baumannii mutant AB522; test: MIC against Tn-seq transposon mutant AB522; assay type: cell-based; conditions: Acinetobacter baumannii
# Method: as §1, §2
# A. baumannii strain 5001 = test: Potentiation of clarithromycin and vancomycin against clinical isolate; assay type: cell-based, Acinetobacter baumannii; conditions: with compound at 30 μM
# Outline: (§3)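 Broth microdilution in CAMHB, inoculum 5×10^5 CFU/mL from 6 h cultures. Twofold antibiotic series plus compound; 16 h, 37° C, stationary. Readout: MIC (no growth), fold reduction vs antibiotic alone.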
# A. baumannii strain 4456 = test: as above; assay type: cell-based, Acinetobacter baumannii; conditions: with compound at 30 μM
# Outline: as §3
# A. baumannii strain 4498 = test: as above; assay type: cell-based, Acinetobacter baumannii; conditions: with compound at 30 μM
# Outline: as §3
# A. baumannii strain 5256 = test: as above; assay type: cell-based, Acinetobacter baumannii; conditions: with compound at 30 μM
# Outline: as §3
# [4] = compound at 10 μM vs colistin alone, AB5075
# [5] = compound at 30 μM vs antibiotic alone, AB5075
# [6] = in presence of compound at 4 μM, AB5075
# [7] = in presence of compound at 5 μM, AB5075
# [8] = in presence of compound at 10 μM, AB5075
# [9] = in presence of compound at 15 μM, AB5075
# [10] = in presence of compound at 20 μM, AB5075
# [11] = in presence of compound at 30 μM, AB5075
structure (smiles),measurement,setting,value
Nc1nc(-c2ccc(NC(=O)c3cc(Cl)cc(Cl)c3)cc2)c[nH]1 [Compound 1],MIC,[1]; read-out: Daptomycm MIC (μg/mL),16 µg/mL
same,Fold Increase (colistin MIC),[1]; [4],8 fold
same,potentiation of vancomycin,[1]; AB5075,no potentiation activity observed
same,reduction in vancomycin MIC (fold),[1]; AB5075,32 fold
same,Fold Reduction (daptomycin MIC),[1]; [5],128 fold
same,Fold Reduction (vancomycin MIC),[1]; [5],256 fold
same,Fold Increase (colistin MIC),"[1]; compound at 30 μM vs colistin alone, AB5075",32 fold
same,Josamycin MIC,[1]; AB5075,8 µg/mL
same,Oleandomycin MIC,[1]; AB5075,64 µg/mL
same,Spiramycin MIC,[1]; AB5075,128 µg/mL
same,Troleandomycin MIC,[1]; AB5075,32 µg/mL
same,Amikacin MIC,[1]; AB5075,128 µg/mL
same,Gentamicin MIC,[1]; AB5075,>512 µg/mL
same,Kanamycin MIC,[1]; AB5075,>512 µg/mL
same,Neomycin MIC,[1]; AB5075,16 µg/mL
same,Streptomycin MIC,[1]; AB5075,256 µg/mL
same,Tobramycin MIC,[1]; AB5075,64 µg/mL
same,Azithromycin MIC,[1]; [6],32 µg/mL
same,Vancomycin MIC,[1]; [6],256 µg/mL
same,Azithromycin MIC,[1]; [7],32 µg/mL
same,Vancomycin MIC,[1]; [7],256 µg/mL
same,Azithromycin MIC,[1]; [8],16 µg/mL
same,Vancomycin MIC,[1]; [8],256 µg/mL
same,Azithromycin MIC,[1]; [9],16 µg/mL
same,Vancomycin MIC,[1]; [9],64 µg/mL
same,Azithromycin MIC,[1]; [10],16 µg/mL
same,Vancomycin MIC,[1]; [10],8 µg/mL
same,Azithromycin MIC,[1]; [11],8 µg/mL
same,Colistin MIC,[1]; [11],16 µg/mL
same,Linezolid MIC,[1]; [11],128 µg/mL
same,Vancomycin MIC,[1]; [11],1 µg/mL
same,Fold reduction of josamycin MIC,[1]; AB5075,16 fold
same,MIC,[2],12.5 µM
same,MIC,[3],12.5 µM
same,Clarithromycin MIC,A. baumannii strain 5001,0.5 µg/mL
same,Vancomycin MIC,A. baumannii strain 5001,2 µg/mL
same,Clarithromycin MIC,A. baumannii strain 4456,0.5 µg/mL
same,Vancomycin MIC,A. baumannii strain 4456,16 µg/mL
same,Clarithromycin MIC,A. baumannii strain 4498,≤0.25 µg/mL
same,Vancomycin MIC,A. baumannii strain 4498,1 µg/mL
same,Clarithromycin MIC,A. baumannii strain 5256,0.25 µg/mL
same,Vancomycin MIC,A. baumannii strain 5256,2 µg/mL
Nc1nc(-c2ccc(NC(=O)c3cc(Br)cc(Br)c3)cc2)c[nH]1 [Compound 4],MIC,"[1]; in presence of compound at 30 μM, AB5075, read-out: Daptomycm MIC",64 µg/mL
same,Fold Increase (colistin MIC),[1]; [4],0 fold
same,potentiation of vancomycin,[1]; AB5075,no potentiation activity observed
same,reduction in vancomycin MIC (fold),[1]; AB5075,64 fold
same,Fold Reduction (daptomycin MIC),[1]; [5],32 fold
same,Fold Reduction (vancomycin MIC),[1]; [5],256 fold
same,Fold reduction (clarithromycin MIC),[1]; [5],128 fold
same,Josamycin MIC,[1]; AB5075,4 µg/mL
same,Oleandomycin MIC,[1]; AB5075,128 µg/mL
same,Spiramycin MIC,[1]; AB5075,64 µg/mL
same,Troleandomycin MIC,[1]; AB5075,16 µg/mL
same,Amikacin MIC,[1]; AB5075,128 µg/mL
same,Gentamicin MIC,[1]; AB5075,>512 µg/mL
same,Kanamycin MIC,[1]; AB5075,>512 µg/mL
same,Neomycin MIC,[1]; AB5075,64 µg/mL
same,Streptomycin MIC,[1]; AB5075,512 µg/mL
same,Tobramycin MIC,[1]; AB5075,64 µg/mL
same,Azithromycin MIC,[1]; [6],64 µg/mL
same,Vancomycin MIC,[1]; [6],128 µg/mL
same,Azithromycin MIC,[1]; [7],64 µg/mL
same,Vancomycin MIC,[1]; [7],256 µg/mL
same,Azithromycin MIC,[1]; [8],32 µg/mL
same,Colistin MIC,[1]; [8],0.5 µg/mL
same,Vancomycin MIC,[1]; [8],128 µg/mL
same,Azithromycin MIC,[1]; [9],8 µg/mL
same,Vancomycin MIC,[1]; [9],32 µg/mL
same,Azithromycin MIC,[1]; [10],16 µg/mL
same,Vancomycin MIC,[1]; [10],4 µg/mL
same,Azithromycin MIC,[1]; [11],8 µg/mL
same,Colistin MIC,[1]; [11],4 µg/mL
same,Linezolid MIC,[1]; [11],256 µg/mL
same,Vancomycin MIC,[1]; [11],1 µg/mL
same,Fold reduction of josamycin MIC,[1]; AB5075,32 fold
same,MIC,[2],12.5 µM
same,MIC,[3],12.5 µM
same,Clarithromycin MIC,A. baumannii strain 5001,0.5 µg/mL
same,Vancomycin MIC,A. baumannii strain 5001,1 µg/mL
same,Clarithromycin MIC,A. baumannii strain 4456,≤0.25 µg/mL
same,Vancomycin MIC,A. baumannii strain 4456,64 µg/mL
same,Clarithromycin MIC,A. baumannii strain 4498,≤0.25 µg/mL
same,Vancomycin MIC,A. baumannii strain 4498,16 µg/mL
same,Clarithromycin MIC,A. baumannii strain 5256,0.25 µg/mL
same,Vancomycin MIC,A. baumannii strain 5256,8 µg/mL
